Assay in all cases: ≥ marks a high value that may be exact or a test limit, other limits are often not marked, values filed in µg/mL are converted to µM
Test [1] concerns Escherichia coli UB1005.
The test system of test [2] is Salmonella enterica subsp. enterica serovar Typhimurium ATCC 14028.
Test [3] concerns Staphylococcus aureus ATCC 25923.
The subject of test [4] is Candida tropicalis CGMCC 2.1975.
In test [5] the test system is Salmonella enterica subsp. enterica serovar Typhimurium C77-31.
The subject of test [6] is Escherichia coli K99.
Test [7] has as its system Staphylococcus epidermidis ATCC 12228.
Test [8] deals with Staphylococcus aureus ATCC 43300.
In test [9] the test system is Salmonella enterica subsp. enterica serovar Pullorum ATCC 7913.
The test system of test [10] is Escherichia coli K88.
For test [11], the system named is Escherichia coli 078.
Test [12] has as its system Candida parapsilosis CGMCC 2.3989.
In test [13] the test system is Pseudomonas aeruginosa ATCC 27853.
The test system of test [14] is Pseudomonas aeruginosa ATCC 10145.
For test [15], the system named is Escherichia coli ATCC 2592.
Test [16] concerns Candida albicans ATCC 10231.
In test [17] the test system is Cryptococcus neoformans ATCC 32045.
Test [18] has as its system Staphylococcus aureus ATCC 33591.
Test [19] has as its system Enterococcus faecalis ATCC 29212.
Test [20] concerns Escherichia coli ATCC 25922.
The subject of test [21] is Staphylococcus aureus.
In test [22] the test system is Salmonella enterica subsp. enterica serovar Pullorum C79-13.
For test [23], the system named is Salmonella enterica subsp. enterica serovar Choleraesuis CVCC 503.
In test [24] the test system is Staphylococcus aureus ATCC 29213.
Test [25] concerns Streptococcus agalactiae.
In test [26] the test system is Listeria monocytogenes KCTC 3710.
Test [27] relates to Salmonella typhimurium KCTC 1926.
In test [28] the test system is Bacillus subtilis KCTC 1998.
Test [29] has as its system Staphylococcus aureus CCARM 3090.
The subject of test [30] is Trichosporon beigelii KCTC 7707.
Test [31] relates to Escherichia coli CCARM 1238.
Test [32] deals with Candida albicans KCTC 7270.
In test [33] the test system is Pseudomonas aeruginosa 4007.
Test [34] deals with Pseudomonas aeruginosa 4891.
Test [35] concerns Staphylococcus aureus CCARM 3518.
Test [36] concerns Escherichia coli CCARM 1229.

Structures are written as SMILES. ≈ marks a conversion by molar mass, not a printed value.

Take `CC[C@H](C)[C@H](NC(=O)[C@H](CCCN=C(N)N)NC(=O)[C@H](C)NC(=O)[C@H](C)N)C(=O)N[C@H](C(=O)N[C@@H](CC(C)C)C(=O)N[C@@H](CCCN=C(N)N)C(=O)N[C@@H](Cc1c[nH]c2ccccc12)C(=O)N[C@@H](CCCN=C(N)N)C(=O)N[C@@H](Cc1ccccc1)C(=O)N[C@@H](CCCN=C(N)N)C(N)=O)[C@@H](C)CC` [AARIILRWRFR]: the MIC (commonly the smallest concentration in the dilution series that meets the test's criterion for growth inhibition) in [1] was 4 µM (≈ 5.83 µg/mL); in test [2], 2 µM (≈ 2.91 µg/mL); in test [3], 2 µM (≈ 2.91 µg/mL); in test [4], 4 µM (≈ 5.83 µg/mL); in test [5], 4 µM (≈ 5.83 µg/mL); in test [6], 2 µM (≈ 2.91 µg/mL). The MIC worked out at 1 µM (≈ 1.46 µg/mL) in [7]; 1 µM (≈ 1.46 µg/mL) in [8]; 2 µM (≈ 2.91 µg/mL) in [9]; 2 µM (≈ 2.91 µg/mL) in [10]; 2 µM (≈ 2.91 µg/mL) in test [11]; 4 µM (≈ 5.83 µg/mL) in test [12]. This compound yielded a minimal inhibitory concentration (MIC) in [13] of 4 µM (≈ 5.83 µg/mL).

Take `NCCCC[C@H](NC(=O)[C@H](Cc1ccccc1)NC(=O)[C@H](Cc1ccccc1)NC(=O)[C@H](CCCCN)NC(=O)[C@H](CCCCN)NC(=O)[C@H](Cc1ccccc1)NC(=O)[C@H](Cc1ccccc1)NC(=O)[C@H](CCCCN)NC(=O)[C@H](CCCCN)NC(=O)[C@H](Cc1ccccc1)NC(=O)[C@H](Cc1ccccc1)NC(=O)[C@H](CCCCN)NC(=O)[C@H](CCCCN)NC(=O)[C@H](Cc1ccccc1)NC(=O)[C@H](Cc1ccccc1)NC(=O)[C@H](CCCCN)NC(=O)[C@H](CCCCN)NC(=O)[C@H](Cc1ccccc1)NC(=O)[C@H](Cc1ccccc1)NC(=O)[C@H](CCCCN)NC(=O)[C@H](CCCCN)NC(=O)[C@H](Cc1ccccc1)NC(=O)[C@H](Cc1ccccc1)NC(=O)[C@H](CCCCN)NC(=O)[C@H](CCCCN)NC(=O)[C@H](Cc1ccccc1)NC(=O)[C@H](Cc1ccccc1)NC(=O)[C@@H](N)CCCCN)C(=O)O` [KFFKKFFKKFFKKFFKKFFKKFFKKFFK]: the MIC was not below 32.3 µM in test [14]; not below 32.3 µM in test [15]; 91.3 µM (≈ 354 µg/mL) in test [16]; 22.7 µM (≈ 88 µg/mL) in test [17]; not below 64.6 µM in [18].

Turning to `C[C@H](NC(=O)[C@H](Cc1ccccc1)NC(=O)[C@H](CCCCN)NC(=O)[C@H](CCCCN)NC(=O)[C@H](C)NC(=O)[C@H](Cc1ccccc1)NC(=O)[C@H](CCCCN)NC(=O)[C@H](CCCCN)NC(=O)[C@H](C)NC(=O)[C@H](Cc1ccccc1)NC(=O)[C@@H](N)CCCCN)C(=O)N[C@@H](CCCCN)C(=O)O` [KFAKKFAKKFAK], the MIC in test [14] is not below 347 µM; in test [15] it was not below 173 µM; in [16], 260 µM (≈ 374 µg/mL); in test [17] it was not below 123 µM; in test [18], not below 347 µM.

For the compound `CC[C@H](C)[C@H](N)C(=O)N[C@@H](CS)C(=O)N[C@@H](CCCN=C(N)N)C(=O)N[C@@H](CCCCN)C(=O)N1CCC[C@H]1C(=O)N[C@H](C(=O)N[C@H](C(=O)N[C@@H](CS)C(=O)N[C@@H](CCCN=C(N)N)C(=O)N[C@@H](CCCCN)C(=O)N1CCC[C@H]1C(=O)N[C@H](C(N)=O)[C@@H](C)CC)[C@@H](C)CC)[C@@H](C)CC` [ICRKPIICRKPI], the MIC in [19] is more than 64 µM; in test [1] it was not below 64 µM; in [2] it was more than 64 µM; in test [20], 64 µM (≈ 92.1 µg/mL); in [21] it was more than 64 µM; in [22], not below 64 µM. The MIC is not below 64 µM in [5]; not below 64 µM in test [23]; more than 64 µM in [24]; more than 64 µM in test [7]; more than 64 µM in test [8]; not below 64 µM in test [25].

In the case of `CC[C@H](C)[C@H](NC(=O)CNC(=O)[C@H](CCC(N)=O)NC(=O)[C@H](CO)NC(=O)[C@@H](NC(=O)[C@H](CCCCN)NC(=O)[C@H](CCCCN)NC(=O)[C@H](CC(C)C)NC(=O)[C@H](C)NC(=O)[C@H](CC(N)=O)NC(=O)[C@H](CC(C)C)NC(=O)[C@H](C)N)C(C)C)C(=O)N[C@@H](Cc1cnc[nH]1)C(=O)N[C@@H](CCC(=O)O)C(=O)N[C@@H](C)C(=O)N[C@H](C(=O)N[C@@H](CCCCN)C(=O)N[C@@H](CC(C)C)C(=O)N[C@H](C(=O)N[C@@H](C)C(=O)N[C@@H](CC(N)=O)C(=O)N[C@@H](Cc1cnc[nH]1)C(=O)N[C@H](C(=O)N[C@@H](CCC(N)=O)C(N)=O)C(C)C)[C@@H](C)CC)[C@@H](C)CC` [ALNALKKVSQGIHEAIKLIANHVQ], the MIC in [26] is 16 µM (≈ 41.5 µg/mL); in test [20], 8 µM (≈ 20.8 µg/mL); in test [27], 8 µM (≈ 20.8 µg/mL); in [28], 16 µM (≈ 41.5 µg/mL); in test [3], 16 µM (≈ 41.5 µg/mL); in test [29], not below 32 µM. Also, the minimum inhibitory concentration (MIC) in test [30] is not below 32 µM; in test [31], 16 µM (≈ 41.5 µg/mL); in test [32], not below 32 µM; in [33], not below 32 µM; in test [34], not below 32 µM; in test [35] it was not below 32 µM. In addition, the MIC in [36] came to 16 µM (≈ 41.5 µg/mL); in [13], 8 µM (≈ 20.8 µg/mL).

The record behind these values is DBAASP.
